The conditions of series [1]: reported in Brandon et al., Annual Reports in Medicinal Chemistry 42, 2007; cited from earlier work.
Series [2] deals with other PDE isoforms. The conditions noted are these: reported in Brandon et al., Annual Reports in Medicinal Chemistry 42, 2007; cited from earlier work.
The target in series [3] is T1, Rhesus PDE2A3 (Macaca mulatta, UniProt B3VTJ2).
T1 construct: made in house; host or cells: AD293 cells, transient transfection; supernatant of sonicated lysate
T1 sequence (B3VTJ2 1-941): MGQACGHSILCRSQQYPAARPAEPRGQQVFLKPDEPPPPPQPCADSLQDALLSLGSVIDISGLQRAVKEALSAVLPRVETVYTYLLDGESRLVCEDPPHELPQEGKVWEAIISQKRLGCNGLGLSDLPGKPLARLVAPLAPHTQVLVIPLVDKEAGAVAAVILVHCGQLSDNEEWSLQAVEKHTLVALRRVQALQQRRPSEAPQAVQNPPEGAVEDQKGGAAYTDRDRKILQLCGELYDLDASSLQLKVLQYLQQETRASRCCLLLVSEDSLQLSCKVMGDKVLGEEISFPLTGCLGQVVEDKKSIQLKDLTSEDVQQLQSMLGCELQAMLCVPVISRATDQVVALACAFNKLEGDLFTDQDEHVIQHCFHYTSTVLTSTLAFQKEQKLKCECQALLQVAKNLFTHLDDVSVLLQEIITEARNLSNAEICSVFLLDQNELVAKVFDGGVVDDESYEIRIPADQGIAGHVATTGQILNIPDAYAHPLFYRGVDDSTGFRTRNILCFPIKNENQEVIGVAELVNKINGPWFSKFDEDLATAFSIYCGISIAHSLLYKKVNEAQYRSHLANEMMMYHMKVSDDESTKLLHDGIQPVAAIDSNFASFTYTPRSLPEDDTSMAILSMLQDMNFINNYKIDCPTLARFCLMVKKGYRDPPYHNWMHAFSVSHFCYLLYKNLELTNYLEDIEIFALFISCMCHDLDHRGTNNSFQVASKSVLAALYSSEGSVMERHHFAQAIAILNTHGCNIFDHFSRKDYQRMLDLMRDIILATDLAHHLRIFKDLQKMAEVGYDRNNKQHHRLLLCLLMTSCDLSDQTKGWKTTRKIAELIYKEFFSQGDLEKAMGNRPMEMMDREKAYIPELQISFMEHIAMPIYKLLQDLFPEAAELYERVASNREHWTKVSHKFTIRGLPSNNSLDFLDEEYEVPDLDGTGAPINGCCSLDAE
Briefly: PDE2 fluorescence polarization (IMAP FP) inhibition assay, rhesus PDE2A3. It counts as biochemical, rhesus macaque. The protocol: The activity of the compounds in accordance with the present invention as PDE2 inhibitors may be readily determined using a fluorescence polarization (FP) methodology (Huang, W., et al., J. Biomol Screen, 2002, 7: 215).
The PDE2 inhibitory activity of the compounds of the present invention was determined in accordance with the following experimental method. Rhesus PDE2A3 was amplified from rhesus macaque brain cDNA (Biochain Institute, Hayward, Calif.) using primers based on human PDE2A sequence (accession NM_002599.3) where the forward primer containing a Kozak consensus was 5′-[…]-3′ and the reverse primer was 5′-[…]-3′. Amplification with Easy-A High-Fidelity PCR cloning enzyme (Stratagene, La Jolla, Calif.) was 95° C. for 2 minutes followed by thirty three cycles of 95° C. for 40 seconds, 52° C. for 30 seconds, and 72° C. for 2 minutes 48 seconds. Final extension was 72° C. for 7 minutes. The PCR product was TA cloned into pcDNA3.3-TOPO (Invitrogen, Carlsbad, Calif.) according to standard protocol. A consensus sequence was developed from multiple clones and then deposited into GenBank (EU812167). AD293 cells (Stratagene, La Jolla, Calif.) with 70-80% confluency were transiently transfected with rhesus PDE2A3/pcDNA3.3-TOPO using Lipofectamine 2000 according to manufacturer specifications (Invitrogen, Carlsbad, Calif.). Cells were harvested 48 hours post-transfection and lysed by sonication (setting 3, 10×5 sec pulses) in a buffer containing 20 mM HEPES pH 7.4, 1 mM EDTA and Complete Protease Inhibitor Cocktail Tablets (Roche, Indianapolis, Ind.). Lysate was collected by centrifugation at 75,000×g for 20 minutes at 4° C. and supernatant utilized for evaluation of PDE2 activity. The fluorescence polarization assay for cyclic nucleotide phosphodiesterases was performed using an IMAP® FP kit supplied by Molecular Devices, Sunnyvale, Calif. (product #R8139). […] Assays were performed at room temperature in 384-well microtiter plates with an incubation volume of 20.2 μL. Solutions of test compounds were prepared in DMSO and serially diluted with DMSO to yield 8 μL of each of 10 solutions differing by 3-fold in concentration, at 32 serial dilutions per plate. […] 0% of inhibition is determined by using DMSO (1% final concentrations).
A Labcyte Echo 555 (Labcyte, Sunnyvale, Calif.) is used to dispense 200 nL from each well of the titration plate to the 384 well assay plate. Ten microliters of a solution of enzyme (1/2000 final dilution from aliquots; sufficient to produce 20% substrate conversion) was added to the assay plate. Next 10 uL of a separate solution of the substrate FAM-labeled cAMP (50 nM final concentration product # R7506 from Molecular Devices) and the activator cGMP (1 uM final concentration), prepared in the assay buffer (10 mM Tris HCl, pH 7.2, 10 mM MgCl2, 0.05% NaN3 0.01% Tween-20, and 1 mM DTT) was added to the assay plate and shaken to mix. The reaction is allowed to proceed at room temperature for 60 minutes. A binding solution is then made from the kit components, comprised of 80% Solution A, 20% Solution B and binding reagent at a volume of 1/600 the total binding solution. The enzymatic reaction is stopped by addition of 60 μL of the binding solution to each well of the assay plates and the plates are sealed and shaken for 30 seconds. The plate was incubated at room temperature for at least one hour prior to determining the fluorescence polarization (FP). The parallel and perpendicular fluorescence of each well of the plate was measured using a Tecan Genios Pro plate reader (Tecan, Switzerland) or Perkin Elmer EnVision™ plate reader (Waltham, Mass.). Fluorescence polarization (mP) was calculated from the parallel (S) and perpendicular (P) fluorescence of each sample well and the analogous values for the median control well, containing only substrate (So and Po), using the following equation: Polarization(mP)=1000*(S/So−P/Po)/(S/So+P/Po).
(Fluorescence polarisation rises when a labelled molecule tumbles more slowly, as on binding a larger partner.)

[4] abbreviates: Lab B, read-out: Rhesus PDE2 Ki (nM) Lab B.
Where [5] appears, read: Lab A, read-out: Rhesus PDE2 Ki (nM) Lab A.

Consider seven compounds from patent publication US10160762B2, “6-alkyl dihydropyrazolopyrimidinone compounds as PDE2 inhibitors” (Merck Sharp & Dohme Corp., priority 2015, dated 2018).

Like-named read-outs stand apart in the source and are kept apart here.

Regarding `COc1ccc(Cc2nn3c([C@@H](CCCc4ccccc4)[C@@H](C)O)nc(C)c3c(=O)[nH]2)cc1OC` [BAY 60-7550, Bay 60-7550], in series [1], the brain penetration entry is recorded as “limited”. The “potency at other PDE isoforms” value in series [2] is “significant potency”. By Ki is commonly meant a measure of affinity in units of concentration, obtained from inhibition or displacement. Consider `CC(c1ccc(C(F)(F)F)cc1)n1nc(CO)c2c(=O)[nH]c(-c3ccco3)nc21` (racemic) [Example 294, 6-Furan-2-yl-3-(hydroxymethyl)-1-{1-[4-(trifluoromethyl)phenyl]ethyl}-1,5-dihydro-4H-pyrazolo[3,4-d]pyrimidin-4-one], for which the Ki in series [3] (setting [4]) is about 2590 nM. The same measure, in the same setting: the result for `Cc1nc2c(c(C)nn2C(C)C(O)c2ccc(C(F)(F)F)cc2)c(=O)[nH]1` (stereo not drawn) [Example 332, 1-(1-Hydroxy-1-(4-(trifluoromethyl)phenyl)propan-2-yl)-3,6-dimethyl-1H-pyrazolo[3,4-d]pyrimidin-4(5H)-one] reads 8880 nM; that for `Cc1nc2c(c(CCO)nn2C(C)c2ccc(C(F)(F)F)cc2)c(=O)[nH]1` (single isomer, unassigned) [Example 249], 245 nM; that for `Cc1nc2c(c(CC(F)(F)F)nn2C(c2ccc(C(F)(F)F)cc2)C2(C)CC2)c(=O)[nH]1` (single isomer, unassigned) [Example 58, (R)- or (S)-6-Methyl-1-((1-methylcyclopropyl)(4-(trifluoromethyl)phenyl)methyl)-3-(2,2,2-trifluoroethyl)-1H-pyrazolo[3,4-d]pyrimidin-4(5H)-one], 1080 nM. Turning to `Cc1nn(C(C)c2ccc(C(F)(F)F)cc2)c2nc(CCC(=O)N(C)C)[nH]c(=O)c12` (stereo not drawn) [Example 32, N,N-Dimethyl-3-(3-methyl-4-oxo-1-(1-(4-(trifluoromethyl)phenyl)ethyl)-4,5-dihydro-1H-pyrazolo[3,4-d]pyrimidin-6-yl)propanamide], the Ki in series [3] (setting [5]) came out at 275 nM; in series [3] (setting [4]), 416 nM. Take `Cc1nn(C(C)c2ccc(C(F)(F)F)cc2)c2nc(C(C)O)[nH]c(=O)c12` (stereo not drawn) [Example 29, 6-(1-Hydroxyethyl)-3-methyl-1-(1-(4-(trifluoromethyl)phenyl)ethyl)-1H-pyrazolo[3,4-d]pyrimidin-4(5H)-one]: the inhibition constant (Ki) in series [3] (setting [5]) was 583 nM.
